From patent publication US20240279214A1, “ALPHA4 BETA7 INEGRIN ANTAGONISTS AND USES THEREOF” (XinThera, Inc., priority 2022, published 2024)

Target: T1, a4b7 integrin interaction with MadCAM-1 (Homo sapiens, UniProt P13612+P26010)
T1 construct: capture of a4b7 integrin expressing cells, RPMI8866; endogenous in cells; host or cells: RPMI8866
T1 sequence (P13612 34-1032): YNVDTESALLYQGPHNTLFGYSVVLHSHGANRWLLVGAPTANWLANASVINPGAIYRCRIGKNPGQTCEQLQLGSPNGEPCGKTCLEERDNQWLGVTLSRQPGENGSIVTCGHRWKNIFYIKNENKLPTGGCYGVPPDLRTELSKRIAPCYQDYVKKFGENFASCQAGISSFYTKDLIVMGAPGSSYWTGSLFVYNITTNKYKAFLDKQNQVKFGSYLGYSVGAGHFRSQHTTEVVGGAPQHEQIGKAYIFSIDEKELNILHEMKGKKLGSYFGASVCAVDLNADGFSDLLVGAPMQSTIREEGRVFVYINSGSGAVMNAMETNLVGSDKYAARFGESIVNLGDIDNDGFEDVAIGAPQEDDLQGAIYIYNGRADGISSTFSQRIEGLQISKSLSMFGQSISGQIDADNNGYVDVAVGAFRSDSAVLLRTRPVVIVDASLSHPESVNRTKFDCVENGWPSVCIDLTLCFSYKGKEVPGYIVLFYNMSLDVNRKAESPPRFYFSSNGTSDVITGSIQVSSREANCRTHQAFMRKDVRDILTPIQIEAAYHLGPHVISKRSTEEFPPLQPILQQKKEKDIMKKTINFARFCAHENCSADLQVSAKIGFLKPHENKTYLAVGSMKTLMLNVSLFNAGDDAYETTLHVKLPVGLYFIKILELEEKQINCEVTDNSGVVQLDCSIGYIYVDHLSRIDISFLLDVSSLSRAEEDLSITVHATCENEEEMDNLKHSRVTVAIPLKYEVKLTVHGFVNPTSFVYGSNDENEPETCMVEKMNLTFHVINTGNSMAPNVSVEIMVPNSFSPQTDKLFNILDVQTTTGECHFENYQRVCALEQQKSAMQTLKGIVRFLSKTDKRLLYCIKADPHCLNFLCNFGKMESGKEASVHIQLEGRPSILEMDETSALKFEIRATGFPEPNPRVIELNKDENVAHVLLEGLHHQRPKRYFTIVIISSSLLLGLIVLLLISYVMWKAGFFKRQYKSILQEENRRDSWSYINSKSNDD
T1 sequence (P26010 20-798): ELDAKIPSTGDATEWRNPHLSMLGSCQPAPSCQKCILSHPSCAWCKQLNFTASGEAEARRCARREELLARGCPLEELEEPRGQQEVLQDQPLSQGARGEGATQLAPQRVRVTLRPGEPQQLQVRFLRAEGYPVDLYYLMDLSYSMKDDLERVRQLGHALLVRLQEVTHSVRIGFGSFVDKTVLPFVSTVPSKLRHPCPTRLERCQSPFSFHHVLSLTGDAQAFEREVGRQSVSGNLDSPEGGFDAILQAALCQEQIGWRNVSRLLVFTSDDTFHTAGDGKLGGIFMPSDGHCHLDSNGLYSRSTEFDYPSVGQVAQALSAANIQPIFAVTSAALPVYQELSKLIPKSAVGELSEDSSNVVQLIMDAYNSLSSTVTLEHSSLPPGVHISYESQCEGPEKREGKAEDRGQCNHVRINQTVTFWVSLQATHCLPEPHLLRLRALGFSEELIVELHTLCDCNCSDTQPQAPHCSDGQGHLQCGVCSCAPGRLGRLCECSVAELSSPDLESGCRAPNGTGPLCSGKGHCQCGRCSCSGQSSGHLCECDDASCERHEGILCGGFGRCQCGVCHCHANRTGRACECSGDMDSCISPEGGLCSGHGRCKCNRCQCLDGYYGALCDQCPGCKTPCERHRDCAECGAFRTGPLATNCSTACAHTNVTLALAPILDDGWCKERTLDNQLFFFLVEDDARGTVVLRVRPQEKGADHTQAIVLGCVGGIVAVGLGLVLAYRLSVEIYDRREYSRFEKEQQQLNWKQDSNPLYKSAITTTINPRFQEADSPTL
Assay: a4b7 Cell Capture Assay (RPMI8866 cells on MAdCAM-1 Fc coated plates)
Type: cell-based
Conditions: 50% human serum, 1 mM MgCl2, 1 hour incubation, CellTiter-Glo luminescence, read-out: a4B7 cell capture assay RMPI8866-MadCAM EC50
Summary of the method: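 RPMI8866 cells (1.0×10^6 cells/mL) in 1 mM MgCl2, 25 mM HEPES, 50% human serum were added to plates coated with human MAdCAM-1–IgG1 Fc (1.0 μg/mL) and exposed to compound (9-point, 0.08–1000 nM, 0.1% DMSO) for 1 h at 37 °C. Bound cells were read by CellTiter-Glo luminescence. IC50 came from 4-parameter fit of normalized % inhibition.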

EC50 [nM]	SMILES
0.38	Cc1cc2cc(c1F)[C@H](CC(=O)O)NC(=O)[C@@H](n1c(=O)c3ccncc3n(C)c1=O)c1cc(ccc1F)Oc1cccc(C)c1-2 (single isomer, unassigned) [Example 69]
1.2	Cc1cc2cc(c1F)[C@H](CC(=O)O)NC(=O)[C@@H](n1cc(CCN3CC(F)C3)c(C(F)(F)F)cc1=O)c1cc(ccc1Cl)Oc1cccc(C)c1-2 (relative stereo) [Example 59, [(14R*,17S)-12-chloro-19-fluoro-14-{5-[2-(3-fluoroazetidin-1-yl)ethyl]-2-oxo-4-(trifluoromethyl)pyridin-1-yl}-3,20-dimethyl-15-oxo-8-oxa-16-azatetracyclo[16.3.1.1^{9,13}.0^{2,7}]tricosa-1(22),2(7),3,5,9,11,13(23),18,20-nonaen-17-yl]acetic acid]
0.97	Cc1cc2cc(c1F)[C@H](CC(=O)O)NC(=O)[C@@H](n1cc(CCN3CC(F)C3)c(C(F)(F)F)cc1=O)c1cc(ccc1F)Oc1cc(N3C4CCC3COC4)cc(C)c1-2 (relative stereo) [Example 56, [(14R*,17S)-12,19-difluoro-14-{5-[2-(3-fluoroazetidin-1-yl)ethyl]-2-oxo-4-(trifluoromethyl)pyridin-1-yl}-3,20-dimethyl-5-{3-oxa-8-azabicyclo[3.2.1]octan-8-yl}-15-oxo-8-oxa-16-azatetracyclo[16.3.1.1^{9,13}.0^{2,7}]tricosa-1(22),2(7),3,5,9,11,13(23),18,20-nonaen-17-yl]acetic acid]
330	Cc1cc(C(F)(F)F)cc2c1-c1cc(c(F)c(C(F)(F)F)c1)[C@H](CC(=O)O)NC(=O)[C@@H](n1cc(CCN3CC(F)C3)c(C(F)(F)F)cc1=O)c1cccc(c1)O2 (relative stereo) [Example 5, [(14R*,17S)-19-fluoro-14-{5-[2-(3-fluoroazetidin-1-yl)ethyl]-2-oxo-4-(trifluoromethyl)pyridin-1-yl}-3-methyl-15-oxo-5,20-bis(trifluoromethyl)-8-oxa-16-azatetracyclo[16.3.1.1^{9,13}.0^{2,7}]tricosa-1(21),2(7),3,5,9,11,13(23),18(22),19-nonaen-17-yl]acetic acid]
0.079	Cc1cc2cc(c1F)[C@H](CC(=O)O)NC(=O)[C@@H](n1cc(CCCN3CCC3)c(C(F)(F)F)cc1=O)c1cc(ccc1F)Oc1cccc(C)c1-2 (single isomer, unassigned) [Example 21]
1.3	Cc1cc2cc(c1F)[C@H](CC(=O)O)NC(=O)[C@@H](n1cc(CCN3CC(F)C3)c(C(F)(F)F)cc1=O)c1cc(ccc1F)Oc1cc(F)cc(C)c1-2 (relative stereo) [Example 26, [(14R*,17S)-5,12,19-trifluoro-14-{5-[2-(3-fluoroazetidin-1-yl)ethyl]-2-oxo-4-(trifluoromethyl)pyridin-1-yl}-3,20-dimethyl-15-oxo-8-oxa-16-azatetracyclo[16.3.1.1^{9,13}.0^{2,7}]tricosa-1(22),2(7),3,5,9,11,13(23),18,20-nonaen-17-yl]acetic acid]
58	COc1cc(C)c2c(c1)Oc1ccc(F)c(c1)[C@H](n1ccc(C(F)(F)F)cc1=O)C(=O)N[C@@H](CC(=O)O)c1cc-2cc(C)c1F (single isomer, unassigned) [Example 80]
1.3	Cc1cc2cc(c1F)[C@H](CC(=O)O)NC(=O)[C@@H](n1cc(CCN3CC(F)C3)c(C(F)(F)F)cc1=O)c1cc(cc(Cl)c1F)Oc1cccc(C)c1-2 [Example 38, [(14S,17S)-11-chloro-12,19-difluoro-14-{5-[2-(3-fluoroazetidin-1-yl)ethyl]-2-oxo-4-(trifluoromethyl)pyridin-1-yl}-3,20-dimethyl-15-oxo-8-oxa-16-azatetracyclo[16.3.1.1^{9,13}.0^{2,7}]tricosa-1(22),2(7),3,5,9,11,13(23),18,20-nonaen-17-yl]acetic acid]
